For series [1], the system named is NCI-H460 (ATCC #HTB-177) (non-small cell lung). Conditions: H460 (NSCLC); NCI GI50 values; read-out: GI50 (drug concentration that produces 50% cell growth inhibition); cited from earlier work.
Series [2] relates to HCT-15 (ATCC #CCL-225) (colorectal). Conditions: HCT-15 (COLON); NCI GI50 values; read-out: GI50 (drug concentration that produces 50% cell growth inhibition); cited from earlier work.
The subject of series [3] is HCT-116 (ATCC #CCL-247) (colorectal). Conditions: HCT-116 (COLON); NCI GI50 values; read-out: GI50 (drug concentration that produces 50% cell growth inhibition); cited from earlier work.
Series [4] relates to SKOV-3 (ATCC #HTB-77) (ovarian). Conditions: SKOV-3 (OVARIAN); NCI GI50 values; read-out: GI50 (drug concentration that produces 50% cell growth inhibition); cited from earlier work.
Series [5] can be described thus: Solubility comparison in various solvents.
Method: Compounds were dissolved in each solvent under constant stirring and temperature.
The test system of series [6] is NCI-H460 (ATCC #HTB-177) (non-small cell lung). The format is cell-based. Conditions: for GI50: read-out: GI50 (drug concentration that produces 50% cell growth inhibition); for GI50 (drug concentration that produces 50% cell growth inhibition): result in words.
Series [7] concerns HCT-15 (ATCC #CCL-225) (colorectal). In kind it is cell-based. Conditions: for GI50: read-out: GI50 (drug concentration that produces 50% cell growth inhibition); for GI50 (drug concentration that produces 50% cell growth inhibition): result in words.
Series [8] has as its system HCT-116 (ATCC #CCL-247) (colorectal). In kind it is cell-based. Conditions: for GI50: read-out: GI50 (drug concentration that produces 50% cell growth inhibition); for GI50 (drug concentration that produces 50% cell growth inhibition): result in words.
Series [9] concerns SKOV-3 (ATCC #HTB-77) (ovarian). In kind it is cell-based. Conditions: for GI50: read-out: GI50 (drug concentration that produces 50% cell growth inhibition); for GI50 (drug concentration that produces 50% cell growth inhibition): result in words.

Data on twelve compounds can be found in patent US20060003976A1, “Cholesterol/bile acid/bile acid derivative-modified therapeutic drug compounds” (priority 2004, published 2006).

The structures appear in SMILES notation. Where a name gives a salt, the structure may show the parent alone. Read-outs that look alike come from different tables or passages of the source.

Take `CC[C@@]1(O)C(=O)OCc2c1cc1n(c2=O)Cc2cc3ccccc3nc2-1` [Camptothecin, camptothecin]: the GI50 in [1] is 16 nM; in series [2], 160 nM; in series [3], 40 nM; in series [4], 25 nM. Also, the Solubility came to 0.09 mg/g in series [5] (Acetonitrile, r.t.) and 0.00 mg/g in [5] (Soybean Oil USP, r.t.).

Turning to `CCc1c2c(nc3ccc(OC(=O)CC4(CC(=O)O[C@H]5CC[C@@]6(C)C(=CC[C@H]7[C@@H]8CC[C@H]([C@H](C)CCCC(C)C)[C@@]8(C)CC[C@@H]76)C5)CCCC4)cc13)-c1cc3c(c(=O)n1C2)COC(=O)[C@]3(O)CC` [Cholesterol 3,3-tetramethylene glutaric-10-(7-ethyl-10-hydroxycamptothecin)], the GI50 was determined as 871 nM in series [6] (H460 (NSCLC), 48 hours); 12600 nM in [7] (HCT-15 (COLON), 48 hours); 2000 nM in series [8] (HCT-116 (COLON), 48 hours); 295 nM in series [9] (SKOV-3 (OVARIAN), 48 hours).

In the case of `CC[C@@]1(OC(=O)CC2(CC(=O)O[C@H]3CC[C@@]4(C)C(=CC[C@H]5[C@@H]6CC[C@H]([C@H](C)CCCC(C)C)[C@@]6(C)CC[C@@H]54)C3)CCCC2)C(=O)OCc2c1cc1n(c2=O)Cc2cc3ccccc3nc2-1` [Cholesterol 3,3-tetramethylene glutaric-20-camptothecin], the GI50 in series [6] (H460 (NSCLC), 48 hours) is approximately 10000 nM; in series [7] (HCT-15 (COLON), 48 hours), approximately 10000 nM; in series [8] (HCT-116 (COLON), 48 hours), approximately 10000 nM. For the same compound, the “GI50 (drug concentration that produces 50% cell growth inhibition)” value in series [9] (SKOV-3 (OVARIAN), 48 hours) is recorded as “poor”.

With `CCc1c2c(nc3ccc(OC(=O)CC(C)CC(=O)O[C@H]4CC[C@@]5(C)C(=CC[C@H]6[C@@H]7CC[C@H]([C@H](C)CCCC(C)C)[C@@]7(C)CC[C@@H]65)C4)cc13)-c1cc3c(c(=O)n1C2)COC(=O)[C@]3(O)CC` (stereo partly drawn) [Cholesterol 3-methyl glutaric-10-SN38, Cholesterol 3-methylglutaric-10-(7-ethyl-10-hydroxycamptothecin)], the GI50 in series [6] (H460 (NSCLC), 48 hours) was determined as 245 nM; in series [7] (HCT-15 (COLON), 48 hours) it was 2880 nM; in [8] (HCT-116 (COLON), 48 hours) it was 263 nM. In addition, the “GI50 (drug concentration that produces 50% cell growth inhibition)” value in series [9] (SKOV-3 (OVARIAN), 48 hours) is recorded as “poor”.

As for `CC[C@@]1(OC(=O)CC(C)CC(=O)O[C@H]2CC[C@@]3(C)C(=CC[C@H]4[C@@H]5CC[C@H]([C@H](C)CCCC(C)C)[C@@]5(C)CC[C@@H]43)C2)C(=O)OCc2c1cc1n(c2=O)Cc2cc3ccccc3nc2-1` (stereo partly drawn) [Cholesterol 3-methyl glutaric-20-CPT, Cholesterol 3-Methyglutaric-20-Camptothecin], the “GI50 (drug concentration that produces 50% cell growth inhibition)” value in series [6] (H460 (NSCLC), 48 hours) was “poor”; in series [7] (HCT-15 (COLON), 48 hours), “poor”; in series [8] (HCT-116 (COLON), 48 hours), “poor”; in series [9] (SKOV-3 (OVARIAN), 48 hours), “poor”.

Consider `CCc1c2c(nc3ccc(OC(=O)O[C@H]4CC[C@@]5(C)C(=CC[C@H]6[C@@H]7CC[C@H]([C@H](C)CCCC(C)C)[C@@]7(C)CC[C@@H]65)C4)cc13)-c1cc3c(c(=O)n1C2)COC(=O)[C@]3(O)CC` [Cholesterol formate-10-SN38, Cholesterol formate-10-(7-ethyl-10-hydroxycamptothecin)], for which the GI50 in series [6] (H460 (NSCLC), 48 hours) amounted to 10.5 nM; in series [7] (HCT-15 (COLON), 48 hours), 1910 nM; in series [8] (HCT-116 (COLON), 48 hours) it was 631 nM; in series [9] (SKOV-3 (OVARIAN), 48 hours) it was 51.4 nM. Also, the Solubility in series [5] (Acetonitrile, r.t.) was less than 1 mg/g; in [5] (Chloroform, r.t.) it was more than 40 mg/g; in series [5] (Soybean Oil USP, r.t.), less than 1 mg/g; in series [5] (Vitamin E USP/NF, 65 °C), more than 14 mg/g.

Take `CC[C@@]1(OC(=O)O[C@H]2CC[C@@]3(C)C(=CC[C@H]4[C@@H]5CC[C@H]([C@H](C)CCCC(C)C)[C@@]5(C)CC[C@@H]43)C2)C(=O)OCc2c1cc1n(c2=O)Cc2cc3ccccc3nc2-1` [Cholesterol formate-20-CPT, Cholesterol Formate-20-camptothecin]: the “GI50 (drug concentration that produces 50% cell growth inhibition)” value in [6] (H460 (NSCLC), 48 hours) is listed as “poor”; in series [7] (HCT-15 (COLON), 48 hours), “poor”; in [8] (HCT-116 (COLON), 48 hours) it was “poor”; in [9] (SKOV-3 (OVARIAN), 48 hours), “poor”. Also, the Solubility in series [5] (Acetonitrile, r.t.) is reported as less than 1 mg/g; in [5] (Chloroform, r.t.) it was more than 335 mg/g; in [5] (Soybean Oil USP, r.t.), more than 2 mg/g; in [5] (Vitamin E USP/NF, 65 °C), more than 32 mg/g.

As for `CCc1c2c(nc3ccc(OC(=O)CCC(=O)O[C@H]4CC[C@@]5(C)C(=CC[C@H]6[C@@H]7CC[C@H]([C@H](C)CCCC(C)C)[C@@]7(C)CC[C@@H]65)C4)cc13)-c1cc3c(c(=O)n1C2)COC(=O)[C@]3(O)CC` [Cholesterol succinate-10-SN38, Cholesterol succinate-10-(7-ethyl-10-hydroxycamptothecin)], the GI50 amounted to 1660 nM in series [6], 635 nM in [7], 339 nM in [8] and 708 nM in series [9].

Turning to `CC[C@@]1(OC(=O)CCC(=O)O[C@H]2CC[C@@]3(C)C(=CC[C@H]4[C@@H]5CC[C@H]([C@H](C)CCCC(C)C)[C@@]5(C)CC[C@@H]43)C2)C(=O)OCc2c1cc1n(c2=O)Cc2cc3ccccc3nc2-1` [Cholesterol succinate-20-CPT, Cholesterol succinate-20-camptothecin], the GI50 in series [6] (H460 (NSCLC), 48 hours) was more than 5000 nM; in series [7] (HCT-15 (COLON), 48 hours), more than 5000 nM; in series [8] (HCT-116 (COLON), 48 hours), more than 5000 nM; in series [9] (SKOV-3 (OVARIAN), 48 hours) it was more than 5000 nM.

`CCc1c2c(nc3ccc(OC(=O)N4CCC(N5CCCCC5)CC4)cc13)-c1cc3c(c(=O)n1C2)COC(=O)[C@]3(O)CC` [Irinotecan, irinotecan]: the GI50 was 5010 nM in series [1], 7900 nM in series [3] and 17 nM in series [4].

Take `CCc1c2c(nc3ccc(O)cc13)-c1cc3c(c(=O)n1C2)COC(=O)[C@]3(O)CC` [SN38, 7-ethyl-10-hydroxycamptothecin]: the GI50 is 1.4 nM in series [1], 7.9 nM in series [2], 21 nM in series [3] and 1 nM in series [4].

Regarding `CC[C@@]1(O)C(=O)OCc2c1cc1n(c2=O)Cc2cc3c(CN(C)C)c(O)ccc3nc2-1` [Topotecan, topotecan], the GI50 in series [1] was 19.9 nM; in [2], 501 nM; in series [3] it was 39.8 nM; in series [4] it was 63 nM.
